Measured values taken from patent US20150366839A1, “Schisantherin A for the treatment of neurodegenerative diseases” (priority 2014, published 2015).

Experiments:
Akt = assay: p-Akt level after MPP+, Western blot; format: cell-based, Human
Procedure: (§1) After treatment, SH-SY5Y cells were washed three times with PBS and then lysis with RIPA lysis buffer containing 1% PMSF and 1% Protease Inhibitor Cocktail and incubated for 30 min on ice. Cell lysates were centrifuged at 12,500 g for 20 min at 4° C. The supernatant was separated and the amount of protein was determined using the BCA protein assay kit (Thermo Scientific Pierce, USA). Protein samples (30 μg) were separated by SDS-PAGE (10% (w/v)) polyacrylamide gel and then transferred to a polyvinylidene difluoride (PVDF) membrane (Bio-Rad, Hercules, Calif.). Subsequently, the membrane was blocked with 5% (v/v) non-fat milk in PBST (PBS containing 0.1% Tween 20) for 1 h at room temperature. The blots were incubated overnight at 4° C. with primary antibodies. […] Quantitative assessment of protein bands was done with Gel Doc™ XRS equipped with Quantity One software.
The inventors also investigated the contribution of the PI3K/Akt pathway in the neuroprotective effects of SchiA. The inventors measured phosphorylation-Akt (p-Akt) levels after pre-treated with 60 μM SchiA for 12 h and then exposed to 2 mM MPP for another 36 h. […] To further validate whether the activation of PI3K/Akt signaling pathway, the inventors determined the blocking effect of PI3K/Akt inhibitor such as AKT inhibitor IV on the in vitro neuroprotective effect of SchiA. […]

[1] = test system: intracellular ROS in SH-SY5Y cells; assay: 6-OHDA-induced ROS accumulation (CM-H2DCFDA); format: cell-based, Human
Procedure: SH-SY5Y cells seeded at 96-well plates (1×10^4 cells/well) were incubated with 5 μM fluorescent probe CM-H2DCFDA at 37° C. for 20 min after treatment with SchiA or 6-OHDA. The fluorescence intensity was determined by multi-label counter at wavelengths of excitation at 493 nm and emission at 522 nm.
The generation of excess ROS by auto-oxidation of 6-OHDA, considered to be involved in 6-OHDA-induced cellular injury (Cohen and Heikkila 1974). Therefore, to examine whether SchiA prevented the production of ROS from 6-OHDA, the accumulation of ROS was measured by fluorescent probe CM-H2DCFDA in SH-SY5Y cells. The fluorescence intensity of CM-H2DCFDA was measured after SH-SY5Y cell were pretreated with different concentrations of SchiA for 12 h and then treated with or without 400 μM 6-OHDA for 4 h. The results of FIG. 3 are expressed as a percentage of that of the control group. ###P<0.005 versus control group; *p<0.05, **p<0.01 and *** p<0.005 versus 6-OHDA group.

SH-SY5Y cells = assay: MTT neuroprotection against MPP+-induced cell damage; format: cell-based
Procedure: Human neuroblastoma SH-SY5Y cells were purchased from the American Type Culture Collection (ATCC, Manassas, Va., USA) and cultured in a humidified 5% (v/v) CO2 atmosphere in 37° C. in Dulbecco's Modified Eagle Medium (DMEM) (Life technologies, NY, USA) supplemented with 10% FBS, 1% penicillin (100 U/mL) and streptomycin (100 μg/mL). All experiments were carried out 48 h after the cells were seeded.
In another study, SH-SY5Y cells were seeded in 96-well plates (1×10^4 cells/well) for 48 h. SH-SY5Y cells were pre-treated with different concentrations of the five lignans for 12 h and the cell viability was checked by MTT assay. SH-SY5Y cells were pre-treated with different concentrations of the five lignans for 12 h and then exposed to 2 mM MPP or vehicle for 36 h. Cells were incubated at 37° C. for 4 h in 0.5 mg/mL MTT solution (prepared in serum free DMEM medium). The medium was then discarded and 100 μL of DMSO was added to each well to dissolve the violet-formazan crystals. The absorbance at 570 nm with 655 nm as a reference wavelength was measured by a multi-label counter (Wallac VICTOR3TMV, Perkin Elmer, Netherlands). Cell viability was expressed as a percentage of the value of the cells without MPP treatment. The LC50 and EC50 were calculated by GraphPad Prism V5.0 (GraphPad Software, Inc., San Diego, Calif.).
To evaluate the cytotoxicity of five selected lignans of S. chinensis, SH-SY5Y cells were treated with various concentrations of the tested compounds for 12 h and the cell viability was measured using the MTT assay. […] To further study the neuroprotective activities of the five lignans in vitro, cells were treated with various concentrations of the tested compounds for 12 h before exposed to MPP^+. […] Values represent mean±S.D. ###P<0.005 versus control group; *p<0.05, **p<0.01 and *** p<0.005 versus MPP group. […] The therapeutic index of SchiA and SC were 14.9 and 8.8, respectively.
The inventors also investigated the contribution of the PI3K/Akt pathway in the neuroprotective effects of SchiA. The inventors measured phosphorylation-Akt (p-Akt) levels after pre-treated with 60 μM SchiA for 12 h and then exposed to 2 mM MPP for another 36 h. […] And MPP^+-induced down-regulation of Akt expressions was inhibited by SchiA treatment. […] To further validate whether the activation of PI3K/Akt signaling pathway, the inventors determined the blocking effect of PI3K/Akt inhibitor such as AKT inhibitor IV on the in vitro neuroprotective effect of SchiA. SH-SY5Y cells were pre-incubated with Akt inhibitor IV (2 μM) for 1 h and then treated with SchiA for 12 h. Drug-treated cells were further treated with 2 mM MPP for another 36 h, MTT assay was used to determinate cell viability.

caspase-3 = assay: MPP+-induced caspase-3 activation, Western blot; format: cell-based, Human; details: 60 μM 12 h, then 2 mM MPP+ 36 h
Procedure: as §1, with “antibodies. After three washes with PBST, the membranes were incubated with horseradish peroxidase-conjugated secondary antibodies (1:2000) in PBST with 5% non-fat milk for 1 h at room temperature.” for “antibodies.”
The inventors performed Western blot to measure the expression of active-form of caspase-3 and caspase-7 in SH-SY5Y cells. […] Caspase-3 activity was expressed as units per mg protein. ###p<0.005 versus control group; *p<0.05, **p<0.01 and *** p<0.005 versus MPP+ group.

For `COc1cc2c(c(OC)c1OC)-c1c(cc3c(c1OC)OCO3)C[C@H](C)[C@](C)(O)[C@H]2OC(=O)c1ccccc1` [SchiA, Schisantherin A], the “MPP+-induced down-regulation of Akt expressions” value (Akt; 60 μM 12 h, then 2 mM MPP+ 36 h) was “inhibited”, the “p-Akt level compared to control group, compound alone” value (Akt; 60 μM, without MPP+) was 2.5 fold and the “6-OHDA-induced intracellular ROS level” value ([1]; 3, 6, 12, 25 and 50 μM 12 h, then 400 μM 6-OHDA 4 h) was “significantly reduced”. For the same compound, the “intracellular ROS levels, compound alone” value ([1]; without 6-OHDA) was “no obvious effect”, the EC50 (SH-SY5Y cells; pre-treated 12 h, then 2 mM MPP+ 36 h) was 8.1 µM and the “protection against MPP+-induced cell damage (cell viability)” value (SH-SY5Y cells; various concentrations 12 h before MPP+) was “protect against MPP^+-induced cell damage in a dose-dependent manner”. For the same compound, the “MPP+-induced caspase-3 activation (active form)” value (caspase-3) was “significant decrease”.
